Entries after “also recorded” stand apart in the source; their conditions may differ.
Molecular target: T1, mammalian CaSR (Homo sapiens, UniProt P41180)
T1 construct: expressed in transfected cells; host or cells: HEK cells stably expressing the mammalian CaSR
T1 sequence (P41180 20-1078): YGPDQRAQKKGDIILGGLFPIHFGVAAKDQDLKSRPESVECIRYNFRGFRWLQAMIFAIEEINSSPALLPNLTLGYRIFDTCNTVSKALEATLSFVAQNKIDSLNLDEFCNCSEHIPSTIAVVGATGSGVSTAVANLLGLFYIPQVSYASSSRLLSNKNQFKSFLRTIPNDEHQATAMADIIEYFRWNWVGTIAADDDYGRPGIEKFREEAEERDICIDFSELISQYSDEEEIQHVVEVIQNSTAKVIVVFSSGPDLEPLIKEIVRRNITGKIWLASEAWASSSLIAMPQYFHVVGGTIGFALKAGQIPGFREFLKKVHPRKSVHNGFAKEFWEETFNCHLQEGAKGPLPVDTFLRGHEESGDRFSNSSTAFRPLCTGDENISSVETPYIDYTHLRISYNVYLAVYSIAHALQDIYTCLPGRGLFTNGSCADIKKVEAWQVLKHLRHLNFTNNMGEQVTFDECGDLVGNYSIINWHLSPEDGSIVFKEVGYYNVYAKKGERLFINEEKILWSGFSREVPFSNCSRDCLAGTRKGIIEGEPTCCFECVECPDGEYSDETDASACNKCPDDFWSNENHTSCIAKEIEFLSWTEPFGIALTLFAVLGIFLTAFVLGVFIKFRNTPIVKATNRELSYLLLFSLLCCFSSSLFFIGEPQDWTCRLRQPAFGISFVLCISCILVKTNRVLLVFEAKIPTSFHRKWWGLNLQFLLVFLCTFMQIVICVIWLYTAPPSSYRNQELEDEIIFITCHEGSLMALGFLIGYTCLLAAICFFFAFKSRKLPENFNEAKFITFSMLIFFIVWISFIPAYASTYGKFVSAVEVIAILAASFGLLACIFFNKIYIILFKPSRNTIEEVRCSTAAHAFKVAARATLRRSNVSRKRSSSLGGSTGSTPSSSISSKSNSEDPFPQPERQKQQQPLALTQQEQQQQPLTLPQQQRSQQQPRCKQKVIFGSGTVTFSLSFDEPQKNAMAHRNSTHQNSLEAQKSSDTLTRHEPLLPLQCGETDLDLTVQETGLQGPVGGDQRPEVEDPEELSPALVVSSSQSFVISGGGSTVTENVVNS
Experiment: FURA2 ratio imaging fluorimetry of HEK cells stably expressing mammalian CaSR
Format: cell-based
Source text: All methods and equipment utilized to perform experiments on HEK cells have been reported previously (Gama, L. and Breitwieser, G. E. 1998. A carboxyl-terminal domain controls the cooperativity for extracellular Ca2+ activation of the human calcium sensing receptor. A study with receptor-green fluorescent protein fusions. J. Biol. Chem. 273, 29712-29718; Bai, M., Quinn, S., Trivedi, S., Kifor, 0., Pearce, S. H., Pollak, M. R., Krapcho, K., Hebert, S. C. and Brown, E. M. 1996. Expression and characterization of inactivating and activating mutations in the human Ca2+o-sensing receptor. J. Biol. Chem. 271, 19537-19544). Untransfected HEK cells or, alternatively, cells transfected and expressing CaSR protein were cultured in Dulbecco's Modified Eagle Medium containing 10% fetal bovine serum and 1% penicillin-streptomycin in 75 cm^2 flasks until they reached confluence. Media was removed from the flasks and cells were loaded by exposure to Loading Buffer (125 mM NaCl, 4 mM KCl, 1.0 mMCaCl2, 1.0 mM MgCl2, 1 mM NaH2PO4, 20 mM HEPES, 1 gm/liter bovine serum albumin, and 1 gm/l glucose, pH ˜7.4, osmolality ˜285) containing 4.1 micromolar FURA2-AM (Molecular Probes Inc. Eugene, Oreg.) for 2 hr. Cells were then scraped from the surface of the flask using a standard cell scraper (Costar 3010, Corning Inc.). Cells were then pelleted from the suspension by low speed centrifugation to remove loading buffer and rinsed twice to remove extracellular FURA2 dye by two sequential suspensions and pelleting steps using low speed centrifugation. Immediately prior to the start of the experiment, cells were resuspended in various experimental buffers for analyses as described below. The Standard Experimental Buffer used for many studies was composed of: 125 mM NaCl, 4 mM KCl, 0.5 mMCaCl2, 0.5 mM MgCl2, 20 mM HEPES, 1 g/l glucose, pH ˜7.4, osmolality ˜285. All other buffers were variations on this basic composition where specific components within the Standard Experimental Buffer were varied while the remaining components were held constant.
Cell suspensions consisting of a total volume of 3 ml were analyzed in a PTI fluorimeter (PTI Model 814 Photomultiplier Detection System equipped with SC-500 Shutter Controller and PTI Driver and Analysis Software) within approximately 20 min after exposure to experimental buffers. Data was acquired using standard ratio image analysis as described previously using a data acquisition rate of 1.3 sec. for 500 or 1000 second intervals.
In selected experiments, the detergent Triton X-100 was added in order to lyse the cells and quantify differences in FURA2 ratio fluorescence. Triton X-100 was added to the cells to obtain a maximal fluorescence signal from the FURA2 for purposes of quantification.
Experiments on HEK cells were performed generally as described in Example 6 herein. […] Subsequent addition of Ca2+ to a final concentration of 5 mM produced an additional response (see FIG. 26A). No response was observed upon addition of 0.025% Mintrex Zn after the addition of experimental buffer (EB) (see FIG. 26B). […] In addition, the magnitude of the CaSR response to 5 mM Ca2+ was diminished by previous addition of Mintrex Zn.
For mammalian CaSR experiments, two individual aliquots from a single pool of HEK cells that stably express the recombinant mammalian CaSR protein were used for ratio imaging fluorimetry assays of CaSR activation generally as described in Example 6 herein. Addition of Ca++ to a final concentration of 2.5 mM produced a CaSR response that was also followed by responses after subsequent additions of 0.025% Zn proteinate followed by Ca++ to a final concentration of 7.5 mM (FIG. 29B). […] There was also a response to a subsequent dose of Ca++ to a final concentration of 7.5 mM (FIG. 29B). In both tracings, the detergent Triton X-100 was added as a final step to lyse the cells.
Experiments on HEK cells were performed generally as described in Example 6 herein. […]

effect of prior modulator on CaSR response to 0.025% Zn Proteinate (1 micromolar MC 0100): increased the response
CaSR response to stepwise additions (after addition of 2.5 mM Ca++ (FIG. 37)): increased responses
effect on Mintrex Zn-induced reduction of CaSR response to 5 mM Ca2+ (previous addition of 1 micromolar MC0100): partially restored
Compound: COc1cccc([C@@H](C)NCCCc2ccccc2)c1 [MC0100]
effect of prior modulator on CaSR response to 0.025% Mintrex Zn (1 micromolar MC0100 added before Mintrex Zn): responded to 0.025% Mintrex Zn only after the addition of 1 micromolar MC0100
CaSR response to the modulator itself (MC0100 at final 1 micromolar): very small CaSR response; also recorded: did not itself produce a large response
